Measurements published in PubChem BioAssay (NCI).
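Tested at 5 concentrations; 48 h exposure; 96-well plates; endpoints linearly interpolated, else capped at highest concentration. GI50 = concentration required for 50% inhibition of growth. The concentration for full growth arrest is given as TGI.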

Tests used:
Experiment in all cases: NCI anticancer screen, dose series, 48 h
HL-60(TB) leukemia = test system: HL-60(TB) leukemia
SK-OV-3 ovarian = test system: SK-OV-3 ovarian
OVCAR-8 ovarian = test system: OVCAR-8 ovarian
SW-620 colon = test system: SW-620 colon
SN12C renal = test system: SN12C renal
HCC-2998 colon = test system: HCC-2998 colon
SK-MEL-28 melanoma = test system: SK-MEL-28 melanoma
K-562 leukemia = test system: K-562 leukemia
T-47D breast = test system: T-47D breast
EKVX NSCLC = test system: EKVX NSCLC

Structure (SMILES) | TGI (HL-60(TB) leukemia) [µM] | TGI (SK-OV-3 ovarian) [µM] | TGI (OVCAR-8 ovarian) [µM] | TGI (SW-620 colon) [µM] | TGI (SN12C renal) [µM] | TGI (HCC-2998 colon) [µM] | TGI (SK-MEL-28 melanoma) [µM] | TGI (K-562 leukemia) [µM] | TGI (T-47D breast) [µM] | TGI (EKVX NSCLC) [µM] | GI50 (SN12C renal) [µM]
Cc1cc2nc3c(C#N)c(C)c(CCCl)c(Cl)n3c2cc1C | 5.57 | > 56.6 | 7.55 | 5.79 | 3.63 | 6.23 | 15.5 | 6.63 | 8.9 | 35.6 | –
CCOP(=O)(OCC)/C(=C/n1c(=S)[nH]c2ccccc21)C(=O)OC | > 100 | > 100 | > 100 | > 100 | > 100 | > 100 | > 100 | > 100 | > 100 | > 100 | –
c1ccc2c(c1)nnn2C1CCCCO1 (stereo unspecified) | > 100 | > 100 | > 100 | > 100 | > 100 | > 100 | > 100 | > 100 | > 100 | > 100 | –
COc1cc2c3c(n(C)c(=O)c2cc1OC)-c1cc2c(cc1/C3=C\CCCCl)OCO2 | > 100 | 49.3 | > 100 | > 100 | > 100 | 73.2 | > 100 | > 100 | > 100 | > 100 | > 100
N=C1C=CC(=C(c2ccc(N)cc2)c2ccc(N)cc2)C=C1 | 36.1 | 36.2 | 15.9 | 19.2 | 7.37 | 18.6 | 26.1 | 27.1 | 8.74 | 51.4 | –
